Source: patent US9057106B2, “Method of determination of diagnosis and prognosis in patients with B-cell chronic lymphocytic leukemia and oligonucleotides for use in this method” (MASARYKOVA UNIVERZITA, priority 2009, dated 2015)
Entries after “also recorded” stand apart in the source; their conditions may differ.

Tested on: CLL cells
Test: Transwell migration assay of CLL cells in chemokine gradient
Type: cell-based, human
Description: 2006 Nov. 1; 108(9):3143-51; Richardson S J, Matthews C, Catherwood M A, Alexander H D, Carey B S, Farrugia J, Gardiner A, Mould S, Oscier D, Copplestone J A, Prentice A G: ZAP-70 expression is associated with enhanced ability to respond to migratory and survival signals in B-cell chronic lymphocytic leukemia (CLL). Blood. 2006 May 1; 107(9):3584-92). […] CK1ε is the key component of the Wnt/PCP pathway and its quantity in the patients suffering from CLL is increased. As we show in FIG. 5B, the inhibition of CK1ε blocks the effects of Wnt5a on cell migration in the chemokine gradient. […] The extent of the migration of CLL cells in chemokine gradient after Wnt5a stimulation may be determined by the following procedure and used for the determination of the migration capacity of CLL cells that correlates closely with the infiltration of lymphatic organs and the agressiveness of the disease (Till K J, Lin K, Zuzel M., Cawley J C. The chemokine receptor CCR7 and a4 integrin are important for migration of chronic lymphocytic leukemia cells into lymph nodes. Blood. 2002 99: 2977-2984).
CLL cells were isolated by the identical procedure as in Example 6. After isolation the cells were transferred to tissue culture and subjected to Transwell assay. 96 well plates were used for the experiments (Corning, HTS Transwell®-96 Permeable Support with 5.0 μm Pore Polycarbonate Membrane). These plates consist of a bottom part including the wells and a top part that includes the inserts, the bottom of which is formed by the membrane of a defined size of pores. Each sample was measured in triplicate. The wells in the bottom part of the plate always included 0.235 ml of the medium (RPMI 1640, 0.1% FBS, 1% Penicillin Streptomycin, 1% L-glutamine) and further the required concentration of the chemokine or solvent (0.1% BSA in PBS). […] After the cultivation the inserts were removed from the transwell plate, trypsin was added to each well (100 μl) and after 5 minutes of its activity the number of the cells that migrated through the membrane were counted in each well. […]

CXCL12: chemokine CXCL12
migration of CLL cells (substance itself (alone), 20 hours, recombinant Wnt5a 200 ng/ml): influences positively the migration of CLL cells

NC(=O)c1ccc(-c2nc(-c3ccc4c(c3)OCCO4)c(-c3ccccn3)[nH]2)cc1 [D4476, reference compound]
effect of CK1 inhibition on Wnt5a-induced migration of CLL cells in the chemokine gradient (CK1 inhibitor D4476 100 uM, with Wnt5a and chemokine): blocks migration

B1: Wnt5a: recombinant Wnt5a, secreted ligand of the Wnt/PCP pathway (protein, UniProt P41221 62-380, looked up)
Protein Wnt-5a: IIGAQPLCSQLAGLSQGQKKLCHLYQDHMQYIGEGAKTGIKECQYQFRHRRWNCSTVDNTSVFGRVMQIGSRETAFTYAVSAAGVVNAMSRACREGELSTCGCSRAARPKDLPRDWLWGGCGDNIDYGYRFAKEFVDARERERIHAKGSYESARILMNLHNNEAGRRTVYNLADVACKCHGVSGSCSLKTCWLQLADFRKVGDALKEKYDSAAAMRLNSRGKLVQVNSRFNSPTTQDLVYIDPSPDYCVRNESTGSLGTQGRLCNKTSEGMDGCELMCCGRGYDQFKTVQTERCHCKFHWCCYVKCKKCTEIVDQFVCK
migration of CLL cells in the presence of the chemokine CXCL12 (combination of CXCL12 and recombinant Wnt5a (200 ng/ml), 20 hours): positively affect the migration of CLL cells; also recorded: significantly increased the migration of CLL
